In brackets after ≈: the same amount, converted by molar mass.
Settings: buffer; pH 7.4; 200.0 µM

`O=C(Cc1ccccc1Cl)NC1(O)C(=O)c2ccccc2C1=O` and `O=C(COC(=O)c1ccccc1OCc1ccccc1Cl)NCC1CCCO1` (stereo not given) cannot be ordered by solubility kinetic: greater than 49.5 µg/mL for the first, greater than 60.6 µg/mL for the second.

Compared with `O=C(CNC(=O)c1ccc(Cl)cc1)NC1CCCCC1`, `O=C(CN1CCN(Cc2ccccc2F)C1=O)NC1CCCC1` is higher in solubility kinetic: 6.6 µg/mL (≈ 22.4 µM) for the first, greater than 47.9 µg/mL for the second.

Going from `N#Cc1ccc(C(=O)NC(=S)N2CCN(C=O)CC2)cc1` to `COc1ccc(C(=O)NC(=S)N2CCC(C)CC2)cc1Br`, the solubility kinetic falls from 39 µg/mL (≈ 129 µM) to 8 µg/mL (≈ 21.5 µM) (4.9-fold).

Going from `Cc1cc(Nc2ccccc2Cl)c2ccccc2n1` to `Cc1nc(Nc2ccccc2)sc1C(=O)c1ccc(F)cc1`, the solubility kinetic falls from greater than 40.3 µg/mL to 2.4 µg/mL (≈ 7.68 µM).

`O=C(Nc1cccc(C(=O)O)c1)Nc1ccc2c(c1)OCO2` and `Cc1ccccc1NC(=O)c1cccc(NC(=O)c2ccccc2C(=O)O)c1` cannot be ordered by solubility kinetic: greater than 45 µg/mL for the first, 55.8 µg/mL (≈ 149 µM) for the second.

Compared with `O=C(Nc1cc(N2CCOCC2)ncn1)NC1(C(F)(F)F)Oc2ccc(Cl)cc2O1` (stereo not given), `COc1ccccc1NS(=O)(=O)c1cc(N)ccc1N1CCOCC1` is 13-fold lower in solubility kinetic: 65.5 µg/mL (≈ 147 µM) for the first, 5 µg/mL (≈ 13.8 µM) for the second.

Compared with `CNC(=O)CCc1ccc(OC)cc1`, `COc1ccc(C(=O)NC(C)C2CC3CCC2C3)cc1` (stereo not given) is lower in solubility kinetic: greater than 29 µg/mL for the first, 8.1 µg/mL (≈ 29.6 µM) for the second.

`CCOc1nc2ccccc2nc1NS(=O)(=O)c1ccc(Cl)cc1` and `CCn1c(C)nc2cc(S(=O)(=O)Nc3ccc(C)cc3)ccc21` cannot be ordered by solubility kinetic: greater than 54.6 µg/mL for the first, greater than 49.4 µg/mL for the second.

Compared with `COc1ccccc1OCCNC(=O)CCNC(=O)c1ccccc1Cl`, `COc1ccc(OCC(=O)NCCNC(=O)c2cccnc2)cc1` is lower in solubility kinetic: greater than 56.5 µg/mL for the first, 47.8 µg/mL (≈ 145 µM) for the second.

First: CNC(=O)c1cnc(-c2ccccc2)nc1-c1ccccc1
Second: CC(=O)N1C(=O)NC(c2ccccc2)=C([N+](=O)[O-])C1c1ccccc1 (stereo not given)
The solubility kinetic of the first is 2.9-fold lower: 14.8 µg/mL (≈ 51.2 µM) for the first, 43.2 µg/mL (≈ 128 µM) for the second.

`O=C(O)CCCCCNC(=O)c1ccc(C(=O)NCCCCCC(=O)O)cc1` and `CCOC(=O)CCCCNC(=O)Nc1ccccc1` cannot be ordered by solubility kinetic: 53.9 µg/mL (≈ 137 µM) for the first, greater than 39.6 µg/mL for the second.

First: CN(C)C(=S)Nc1cccc(C(F)(F)F)c1
Second: COc1ccc(C)cc1NC(=O)CSCc1ccccc1C
The solubility kinetic of the first is 3.5-fold higher: 29.7 µg/mL (≈ 120 µM) for the first, 8.6 µg/mL (≈ 27.3 µM) for the second.

Going from `C=CCNC(=S)N(Cc1ccccc1)Cc1ccccc1` to `O=CNCc1nc2ccccc2n1CCc1ccccc1`, the solubility kinetic rises from 7.2 µg/mL (≈ 24.3 µM) to greater than 41.9 µg/mL.

`CCc1nc(N)nc(N)c1-c1ccc(Cl)cc1` and `CC(=O)C1=C(O)C(=O)N(c2ccccn2)C1c1ccc(C)cc1` (stereo not given) cannot be ordered by solubility kinetic: greater than 37.3 µg/mL for the first, greater than 46.3 µg/mL for the second.

First: CN1CCN(CCCNC(=O)CN2C(=O)COc3ccccc32)CC1
Second: CCCCCOC(=O)C1=C(C)NC(=O)NC1c1ccccc1 (stereo not given)
The solubility kinetic of the first is 7.7-fold higher: 37.6 µg/mL (≈ 109 µM) for the first, 4.9 µg/mL (≈ 16.2 µM) for the second.

First: O=C(NC1CCN(Cc2ccc3ccccc3c2)CC1)c1ccccc1
Second: O=C(Nc1cccc2c1CCCC2)c1ccccc1Br
The solubility kinetic of the first is higher: 2.8 µg/mL (≈ 8.13 µM) for the first, less than 0.7 µg/mL for the second.

Going from `CCc1ccc(OC(=O)c2cccnc2)cc1` to `CCOc1ccc(CNCCCSc2ncccn2)cc1`, the solubility kinetic rises from 26.8 µg/mL (≈ 118 µM) to greater than 45.5 µg/mL.

Going from `Cc1ccc(C(=O)NC2=NCCS2)cc1Cl` to `O=C(Nc1ccc(F)cc1F)c1ccc2c(c1)OCCO2`, the solubility kinetic rises from 3.1 µg/mL (≈ 12.2 µM) to 14 µg/mL (≈ 48.1 µM) (4.5-fold).

`C=CCc1c(C)nc(N2CCSCC2)[nH]c1=O` and `O=c1[nH]snc1N1CCOCC1` cannot be ordered by solubility kinetic: 32 µg/mL (≈ 127 µM) for the first, greater than 28.1 µg/mL for the second.

First: CC1CC(C)CN(C(=O)/C=C/c2ccc([N+](=O)[O-])s2)C1 (stereo not given)
Second: O=C(/C=C/c1ccccc1[N+](=O)[O-])OCC(=O)N1CCCC1
The solubility kinetic of the first is lower: 5.8 µg/mL (≈ 19.7 µM) for the first, greater than 45.6 µg/mL for the second.

Going from `N/C(=N\OC(=O)c1ccc([N+](=O)[O-])cc1)c1ccc(Br)cc1` to `Cc1cccc(NC(=O)COC(=O)C2COc3ccccc3O2)c1C` (stereo not given), the solubility kinetic rises from less than 0.3 µg/mL to greater than 51.2 µg/mL.

`Cn1cc([N+](=O)[O-])c(C(=O)N/N=C/c2ccncc2)n1` and `Cc1nc(SCc2ccc(O)c([N+](=O)[O-])c2)c([N+](=O)[O-])[nH]1` cannot be ordered by solubility kinetic: greater than 41.1 µg/mL for the first, greater than 46.5 µg/mL for the second.

Going from `COCCn1c(-c2ccc(F)cc2)nc2oc3cc(OC)ccc3c(=O)c2c1=O` to `Cc1ccc(OCCNC(=O)c2cc(=O)[nH]c3ccccc23)cc1`, the solubility kinetic falls from 21.1 µg/mL (≈ 53.2 µM) to 2 µg/mL (≈ 6.2 µM) (11-fold).

Compared with `CCOc1ncccc1C(=O)Nc1nc(C(C)(C)C)cs1`, `CCOCCCNC(=O)c1c[nH]c2c(CC)cccc2c1=O` is higher in solubility kinetic: 0.6 µg/mL (≈ 1.96 µM) for the first, greater than 45.4 µg/mL for the second.

Compared with `Cc1ccc(/C(O)=C2\C(=O)C(=O)N(CC(C)O)C2c2ccccn2)cc1` (stereo not given), `Cc1ccc(OCC(O)CN2CCc3ccccc3C2)c(C)c1.Cl` (stereo not given) is lower in solubility kinetic: greater than 52.9 µg/mL for the first, 30.7 µg/mL for the second.

`CC1C(=O)N2CCCc3cc(NS(=O)(=O)c4ccc(F)cc4)cc1c32` (stereo not given) and `Cc1cc(C)c(S(=O)(=O)c2ccccc2)c(=O)[nH]1` cannot be ordered by solubility kinetic: greater than 54.1 µg/mL for the first, greater than 39.5 µg/mL for the second.

Compared with `O=C(Nc1cccnc1)C12CC3CC(CC(C3)C1)C2`, `O=C(Nc1ccc(F)c(Cl)c1)C1CC2CCC1C2` (stereo not given) is lower in solubility kinetic: greater than 38.5 µg/mL for the first, 2.8 µg/mL (≈ 10.5 µM) for the second.

`CC(=O)CCn1cc([N+](=O)[O-])nc1C` and `COc1cc(C(=O)OCC(C)=O)c([N+](=O)[O-])cc1OC` cannot be ordered by solubility kinetic: greater than 29.6 µg/mL for the first, greater than 42.5 µg/mL for the second.

Compared with `COc1cc(OC)cc(C(=O)NC2CCCCCCC2)c1`, `CC1CCCC(NC(=O)COC(=O)[C@@H](NC(=O)c2ccccc2Cl)C(C)C)C1C` (stereo not given in full) is 5.4-fold higher in solubility kinetic: 8.6 µg/mL (≈ 29.5 µM) for the first, 46.1 µg/mL (≈ 109 µM) for the second.

Compared with `Cc1noc(C)c1CN1C(=O)c2cccc([N+](=O)[O-])c2C1=O`, `Cc1cc(NCCCOC(C)C)n2c(nc3ccccc32)c1C#N` is lower in solubility kinetic: greater than 45.2 µg/mL for the first, 1.4 µg/mL (≈ 4.34 µM) for the second.

From PubChem BioAssay AID1996
